Source: PMC8568133, “Evaluation of bisphenylthiazoles as a promising class for combating multidrug-resistant fungal infections” (PLoS ONE, 2021)
Values after ≈ are worked out from the molar mass of the structure shown. Read-outs that look alike come from different tables or passages of the source.

Legend:
[1] = test system: Lactobacillus casei ATCC-334; assay: Broth microdilution MIC against normal human microbiota; type: cell-based; conditions: Lactobacillus casei ATCC-334
Experimental: (§1) Broth microdilution was utilized to determine the activity of bisphenylthiazoles against the human gut microflora as described elsewhere. A bacterial solution equivalent to 0.5 McFarland standards was prepared and diluted in MRS broth to achieve a bacterial concentration of approximately 5 x 10^5 CFU/mL. Then, compounds/control antifungals (in triplicates), were added to the plates and serially diluted with media containing bacteria. The plates were incubated for 48 hours at 37 °C before recording the MIC values. The experiment was repeated three independent times.

[2] = test system: Lactobacillus crispatus HM-370; assay: as above; type: cell-based; conditions: Lactobacillus crispatus HM-370
Experimental: as §1

[3] = test system: Lactobacillus gasseri HM-400; assay: as above; type: cell-based; conditions: Lactobacillus gasseri HM-400
Experimental: as §1

Candida parapsilosis = assay: Antifungal broth microdilution MIC (50% growth inhibition); type: cell-based
Experimental: (§2) Serial dilutions (from 128 μg/mL to 0.06 μg/mL) of the tested compounds and control drugs (fluconazole, itraconazole and amphotericin) (in triplicates), were screened against clinical isolates of Candida albicans, Candida auris, Candida glabrata, Candida parapsilosis, Candida tropicalis, Candida krusei, Cryptococcus neoformans, Cryptococcus gattii and Aspergillus fumigatus species using the broth microdilution method according to the Clinical and Laboratory Standards Institute guidelines. MICs were determined as the lowest concentration of the compounds that inhibited the fungal growth by 50% after incubation at 35 °C for 24 h (for Candida and Aspergillus), or 48 h (for Cryptococcus). The minimum fungicidal concentration (MFC) of these compounds was tested by plating 4 μL from wells with no growth onto YPD agar plates. The plates were incubated at 37 °C for 24 hours before recording the MFC, which was categorized as the lowest concentration that reduced fungal growth by 99.9% [45]. The experiment was repeated three independent times.

Aspergillus fumigatus = assay: as above; type: cell-based
Experimental: as §2

Candida tropicalis = assay: Antifungal broth microdilution MIC (50% growth inhibition) and MFC; type: cell-based; conditions: C. tropicalis ATCC 1369
Experimental: as §2

Candida krusei = assay: as above; type: cell-based
Experimental: as §2

Candida auris = assay: as above; type: cell-based
Experimental: as §2

Candida albicans = assay: as above; type: cell-based
Experimental: as §2

Candida glabrata = assay: as above; type: cell-based
Experimental: as §2

Cryptococcus gattii = assay: Antifungal broth microdilution MIC (50% growth inhibition, 48 h); type: cell-based
Experimental: as §2

Cryptococcus neoformans = assay: as above; type: cell-based
Experimental: as §2

[4] = test system: monkey kidney epithelial cells (Vero); assay: In vitro cytotoxicity, MTS assay
Experimental: (§3) Fig 2 In vitro cytotoxicity assay of bisphenylthiazole compounds 7, 16 and 17 (tested in triplicates at 32, 64 and 128 μg/mL) against: A) human colorectal cells (Caco-2), and B) monkey kidney epithelial cells (Vero) after 24-hours exposure time, using the MTS 3-(4,5-dimethylthiazol-2-yl)-5-(3-carboxymethoxyphenyl)-2-(4-sulfophenyl)-2H-tetrazolium) assay. The data represent the percentage of viable Caco-2 or Vero cells measured as the average absorbance relative to DMSO after exposure to the tested compounds. Dimethyl sulfoxide (DMSO) was used as a negative control. Error bars represent the standard deviation values.
(§4) To explore the tolerability of bisphenylthiazoles, their cytotoxicity profile was assessed in human colorectal adenocarcinoma (Caco-2) and monkey kidney epithelial cells (Vero) as described earlier. Briefly, compounds were incubated with the cells for 24 hours. Then, cells were incubated with MTS reagent for 3 hours before measuring the absorbance values (OD490). The experiment was repeated in two independent times.

[5] = test system: human colorectal cells (Caco-2); assay: In vitro cytotoxicity, MTS assay; conditions: Caco-2, 24 h exposure, MTS
Experimental: as §3, §4

[6] = test system: E. coli JW55031 (tolC-mutant); assay: microbe, parasite or virus in culture; type: cell-based, Escherichia coli; conditions: E. coli JW55031 (tolC-mutant)
Experimental: (§5) The minimum inhibitory concentrations (MICs) of the tested compounds and control drugs against clinically-relevant bacterial strains were determined using the broth microdilution method, according to guidelines outlined by the Clinical and Laboratory Standards Institute (CLSI), or as described previously.
(§6) Initial screening of the bisphenylthiazoles against Gram-positive and Gram-negative bacteria. Bacterial strains, (except C. difficile that was grown anaerobically on brain heart infusion supplemented agar at 37° C for 48 hours), were grown aerobically overnight on tryptone soy agar plates at 37° C. Afterwards, a bacterial solution equivalent to 0.5 McFarland standard was prepared and diluted in cation-adjusted Mueller-Hinton broth (CAMHB) (for S. aureus, and E. coli) to achieve a bacterial concentration of about 5 × 10^5 CFU/mL. C. difficile was diluted in brain heart infusion supplemented broth, supplemented with yeast extract, hemin and vitamin K to achieve a bacterial concentration of about 5 × 10^5 CFU/mL. Compounds and control drugs were added in the first row of the 96 -well plates, and serially diluted with the corresponding media containing bacteria. Plates were then, incubated aerobi cally at 37° C for 18-20 hours (for S. aureus and E. coli). C. difficile was incubated anaerobically at 37° C for 48 hours. […]
(§7) the visual growth of bacteria.

MRSA USA300 = assay: Broth microdilution MIC, initial antibacterial screening; type: cell-based, S. aureus; conditions: MRSA USA300
Experimental: as §5, §6, §7

[7] = test system: E. coli BW25113 (wild-type); assay: as above; type: cell-based, Escherichia coli
Experimental: as §5, §6, §7

[8] = test system: C. difficile ATCC BAA1870; assay: Broth microdilution MIC, initial antibacterial screening (anaerobic); type: cell-based, Clostridioides difficile
Experimental: as §5, §6, §7

Cc1nc(-c2ccc(-c3ccccc3)cc2)sc1-c1nnc(N[C@@H]2CCCC[C@H]2N)o1 (relative stereo) [Compound 16, N-{5-[2-((1,1’-Biphenyl)-4-yl)-4-methylthiazol-5-yl]-1,3,4-oxadiazol-2-yl}cyclo-hexane-trans-1,2-diamine]
MIC [1]: >128 µg/mL | MIC [2]: >128 µg/mL | MIC [3]: >128 µg/mL | MIC (Candida parapsilosis; C. parapsilosis ATCC 22019): 1 µg/mL (≈ 2.32 µM) | MIC (Candida parapsilosis; C. parapsilosis CAB 502638): 1 µg/mL (≈ 2.32 µM) | MIC (Aspergillus fumigatus; A. fumigatus NR 35303): 4 µg/mL (≈ 9.27 µM) | MIC (Aspergillus fumigatus; A. fumigatus NR 35304): 4 µg/mL (≈ 9.27 µM) | MIC against Aspergillus fumigatus (Aspergillus fumigatus; tested A. fumigatus isolates (Table 5)): 4 µg/mL (≈ 9.27 µM) | MIC (Candida tropicalis): 4 µg/mL (≈ 9.27 µM) | MIC (Candida krusei; C. krusei ATCC 34135): 1 µg/mL (≈ 2.32 µM) | MIC (Candida krusei; C. krusei CAB 396420): 1 µg/mL (≈ 2.32 µM) | MIC (Candida auris; C. auris 381): 1 µg/mL (≈ 2.32 µM) | MIC (Candida auris; C. auris 382): 2 µg/mL (≈ 4.63 µM) | MIC (Candida auris; C. auris 383): 1 µg/mL (≈ 2.32 µM) | MIC (Candida auris; C. auris 384): 1 µg/mL (≈ 2.32 µM) | MIC (Candida auris; C. auris 385): 2 µg/mL (≈ 4.63 µM) | MIC (Candida auris; C. auris 386): 1 µg/mL (≈ 2.32 µM) | MIC (Candida auris; C. auris 387): 2 µg/mL (≈ 4.63 µM) | MIC (Candida auris; C. auris 388): 1 µg/mL (≈ 2.32 µM) | MIC (Candida auris; C. auris 389): 2 µg/mL (≈ 4.63 µM) | MIC (Candida auris; C. auris 390): 1 µg/mL (≈ 2.32 µM) | MIC (Candida albicans): 2 µg/mL (≈ 4.63 µM) | MIC (Candida albicans; C. albicans ATCC 10231): 4 µg/mL (≈ 9.27 µM) | MIC (Candida albicans; C. albicans SS5314 (wild-type)): 1 µg/mL (≈ 2.32 µM) | MIC (Candida glabrata; C. glabrata ATCC 66032): 1 µg/mL (≈ 2.32 µM) | MIC (Candida glabrata; C. glabrata ATCC MYA-2950): 1 µg/mL (≈ 2.32 µM) | MIC (Cryptococcus gattii; C. gattii NR 43209): 1 µg/mL (≈ 2.32 µM) | MIC (Cryptococcus gattii; C. gattii NR 43210): 1 µg/mL (≈ 2.32 µM) | MIC (Cryptococcus neoformans; C. neoformans NR 41298): 1 µg/mL (≈ 2.32 µM) | MIC (Cryptococcus neoformans; C. neoformans NR 41300): 1 µg/mL (≈ 2.32 µM) | MIC (Cryptococcus neoformans; C. neoformans NR 48770): 1 µg/mL (≈ 2.32 µM) | concentration up to which non-toxic ([4]; Vero, 24 h exposure, MTS): ≤ 64 µg/mL | times more tolerable than amphotericin B ([4]; relative to amphotericin B): 16 times | CC50 [5]: > 128 µg/mL | concentration up to which non-toxic [5]: ≤ 64 µg/mL | MIC [6]: 64 µg/mL (≈ 148 µM) | MIC (MRSA USA300): 64 µg/mL (≈ 148 µM) | MIC [7]: >64 µg/mL | MIC [8]: 32 µg/mL (≈ 74.1 µM)
